Values of other authors as cited in patent publication US20120177693A1, “DEEP LUNG PULMONARY DELIVERY OF TREPROSTINIL” (Aradigm Corporation, priority 2008, published 2012).

Conditions: inhaled; Voswinckel et al.; cited from earlier work

In the case of `CC#CCC(C)[C@H](O)/C=C/[C@@H]1[C@H]2C/C(=C/CCCC(=O)O)C[C@H]2C[C@H]1O` (some centres unmarked) [iloprost], the Plasma half-life is listed as “about 8 min” and the “Time of peak plasma levels” value is listed as “immediately after the completion of the inhalation session”.
